Reference: ChEMBL document CHEMBL1156031, “Tetrahydrocarbazole-based serotonin reuptake inhibitor/dopamine D2 partial agonists for the potential treatment of schizophrenia” (Bioorg Med Chem Lett, 2009)
Values belong to the compound of their own block, whether it stands above or below them. Calls of active or inactive are those of the source. No cut-off for these calls is given here.

How the values were obtained:
[1] = biological target: Sodium-dependent serotonin transporter (Homo sapiens, UniProt P31645); test: biochemical; assay type: cell-based, HEK293
Chain of Sodium-dependent serotonin transporter (P31645 whole entry): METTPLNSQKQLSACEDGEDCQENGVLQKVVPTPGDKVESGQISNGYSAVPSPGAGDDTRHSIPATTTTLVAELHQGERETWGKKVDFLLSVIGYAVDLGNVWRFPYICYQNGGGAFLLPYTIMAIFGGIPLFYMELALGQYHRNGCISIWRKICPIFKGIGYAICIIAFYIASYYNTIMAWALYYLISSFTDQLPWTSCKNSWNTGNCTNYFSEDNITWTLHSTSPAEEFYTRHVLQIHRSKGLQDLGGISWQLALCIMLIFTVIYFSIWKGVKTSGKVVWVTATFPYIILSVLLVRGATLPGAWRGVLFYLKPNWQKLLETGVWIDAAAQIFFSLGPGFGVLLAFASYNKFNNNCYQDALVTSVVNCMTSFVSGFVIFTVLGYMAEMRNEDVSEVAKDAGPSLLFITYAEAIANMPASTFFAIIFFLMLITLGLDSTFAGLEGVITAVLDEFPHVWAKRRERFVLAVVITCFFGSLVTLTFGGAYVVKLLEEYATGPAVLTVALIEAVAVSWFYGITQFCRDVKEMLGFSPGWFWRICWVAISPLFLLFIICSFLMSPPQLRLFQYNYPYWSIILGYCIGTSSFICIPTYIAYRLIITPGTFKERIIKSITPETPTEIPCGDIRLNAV

D(2) dopamine receptor [2] = biological target: T1, D(2) dopamine receptor (Homo sapiens, UniProt P14416); test: Displacement of [3H]spiperone from D2 receptor
T1 sequence (P14416 whole entry): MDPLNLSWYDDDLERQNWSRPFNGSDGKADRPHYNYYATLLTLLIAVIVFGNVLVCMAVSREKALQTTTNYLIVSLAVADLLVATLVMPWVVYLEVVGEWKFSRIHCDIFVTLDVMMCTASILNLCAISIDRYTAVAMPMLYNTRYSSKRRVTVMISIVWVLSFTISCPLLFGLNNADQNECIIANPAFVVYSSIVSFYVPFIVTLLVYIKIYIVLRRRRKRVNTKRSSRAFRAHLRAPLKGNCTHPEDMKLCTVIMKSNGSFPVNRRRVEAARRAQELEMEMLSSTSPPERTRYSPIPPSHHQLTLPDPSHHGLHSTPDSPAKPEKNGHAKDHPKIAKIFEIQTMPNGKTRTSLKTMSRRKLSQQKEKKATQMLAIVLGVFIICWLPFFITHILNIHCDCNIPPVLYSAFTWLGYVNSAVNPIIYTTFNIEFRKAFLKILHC

[3] = biological target: 5-hydroxytryptamine receptor 2A (Homo sapiens, UniProt P28223); test: Agonist activity at 5-HT2A receptor; assay type: functional
Chain of 5-hydroxytryptamine receptor 2A (P28223 whole entry): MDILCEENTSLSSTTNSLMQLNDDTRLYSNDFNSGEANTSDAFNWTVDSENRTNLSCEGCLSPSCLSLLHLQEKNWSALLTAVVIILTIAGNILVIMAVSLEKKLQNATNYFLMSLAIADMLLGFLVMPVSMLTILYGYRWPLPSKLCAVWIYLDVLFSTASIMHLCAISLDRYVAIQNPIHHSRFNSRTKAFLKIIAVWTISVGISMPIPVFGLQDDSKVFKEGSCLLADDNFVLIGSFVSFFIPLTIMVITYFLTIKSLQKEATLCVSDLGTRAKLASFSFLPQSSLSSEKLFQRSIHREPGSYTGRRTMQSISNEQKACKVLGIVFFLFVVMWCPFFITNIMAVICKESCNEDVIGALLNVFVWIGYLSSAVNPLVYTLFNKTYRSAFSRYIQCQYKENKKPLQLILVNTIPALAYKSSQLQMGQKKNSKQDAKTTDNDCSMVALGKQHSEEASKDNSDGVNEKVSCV

[4] = biological target: T2, Adrenergic receptor alpha-1 (Rattus norvegicus, UniProt P15823+P23944+P43140); test: Binding affinity to alpha1 adrenergic receptor in rat brain membrane by radioligand binding assay; assay type: cell membranes
T2 sequence (P15823 whole entry): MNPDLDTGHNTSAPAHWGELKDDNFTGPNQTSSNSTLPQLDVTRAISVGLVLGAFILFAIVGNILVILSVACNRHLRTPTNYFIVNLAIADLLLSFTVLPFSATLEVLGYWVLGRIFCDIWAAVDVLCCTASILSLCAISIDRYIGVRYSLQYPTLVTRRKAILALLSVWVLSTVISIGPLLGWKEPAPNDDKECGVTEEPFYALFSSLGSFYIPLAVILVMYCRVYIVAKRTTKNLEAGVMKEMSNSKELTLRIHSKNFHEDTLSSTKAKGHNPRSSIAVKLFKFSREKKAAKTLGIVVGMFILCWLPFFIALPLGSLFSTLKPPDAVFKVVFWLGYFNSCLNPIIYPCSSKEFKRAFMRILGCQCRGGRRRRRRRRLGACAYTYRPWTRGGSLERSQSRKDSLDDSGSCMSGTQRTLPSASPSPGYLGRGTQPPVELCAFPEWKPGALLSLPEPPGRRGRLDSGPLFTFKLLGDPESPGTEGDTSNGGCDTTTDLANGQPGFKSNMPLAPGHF
T2 sequence (P23944 whole entry): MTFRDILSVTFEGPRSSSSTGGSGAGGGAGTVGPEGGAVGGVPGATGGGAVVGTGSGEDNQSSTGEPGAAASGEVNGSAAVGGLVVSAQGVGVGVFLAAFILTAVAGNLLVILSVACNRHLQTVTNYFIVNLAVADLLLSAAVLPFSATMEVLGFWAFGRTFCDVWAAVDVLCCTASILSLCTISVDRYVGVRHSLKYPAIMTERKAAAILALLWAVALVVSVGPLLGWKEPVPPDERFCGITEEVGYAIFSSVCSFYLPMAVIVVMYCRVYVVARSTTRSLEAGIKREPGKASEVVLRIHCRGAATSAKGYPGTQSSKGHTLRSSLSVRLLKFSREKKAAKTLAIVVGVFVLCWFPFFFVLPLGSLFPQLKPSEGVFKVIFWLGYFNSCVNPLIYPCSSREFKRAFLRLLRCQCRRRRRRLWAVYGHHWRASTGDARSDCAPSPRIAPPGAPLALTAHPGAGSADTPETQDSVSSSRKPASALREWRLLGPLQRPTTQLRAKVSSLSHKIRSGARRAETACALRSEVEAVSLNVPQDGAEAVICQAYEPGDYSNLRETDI
T2 sequence (P43140 whole entry): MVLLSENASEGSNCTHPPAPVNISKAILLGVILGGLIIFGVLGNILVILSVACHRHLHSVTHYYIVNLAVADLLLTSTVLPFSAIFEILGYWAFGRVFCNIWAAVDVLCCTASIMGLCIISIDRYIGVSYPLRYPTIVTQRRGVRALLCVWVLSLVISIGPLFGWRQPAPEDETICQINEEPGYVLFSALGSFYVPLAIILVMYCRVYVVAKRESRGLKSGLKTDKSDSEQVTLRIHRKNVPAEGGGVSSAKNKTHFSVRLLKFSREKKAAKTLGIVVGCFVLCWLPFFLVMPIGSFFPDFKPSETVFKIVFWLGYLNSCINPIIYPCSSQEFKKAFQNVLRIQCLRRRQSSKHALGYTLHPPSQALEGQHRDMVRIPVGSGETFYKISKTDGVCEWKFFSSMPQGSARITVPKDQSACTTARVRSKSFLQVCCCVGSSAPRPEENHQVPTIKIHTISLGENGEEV

[5] = biological target: T3, 5-hydroxytryptamine receptor 2B (Homo sapiens, UniProt P41595); test: Binding affinity to 5-HT2B receptor
T3 sequence (P41595 whole entry): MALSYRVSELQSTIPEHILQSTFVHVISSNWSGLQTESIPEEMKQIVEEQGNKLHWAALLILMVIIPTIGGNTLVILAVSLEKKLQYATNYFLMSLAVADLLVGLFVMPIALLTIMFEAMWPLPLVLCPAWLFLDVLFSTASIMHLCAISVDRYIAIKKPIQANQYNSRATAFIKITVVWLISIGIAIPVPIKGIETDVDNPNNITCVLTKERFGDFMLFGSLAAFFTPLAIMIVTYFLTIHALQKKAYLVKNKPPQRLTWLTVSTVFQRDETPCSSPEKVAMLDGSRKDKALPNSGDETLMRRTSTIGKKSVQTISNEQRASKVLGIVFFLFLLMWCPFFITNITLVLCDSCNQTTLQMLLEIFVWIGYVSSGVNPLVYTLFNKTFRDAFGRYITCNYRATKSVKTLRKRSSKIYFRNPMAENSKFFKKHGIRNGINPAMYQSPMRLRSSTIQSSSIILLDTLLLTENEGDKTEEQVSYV

[6] = biological target: T3, 5-hydroxytryptamine receptor 2B; test: Agonist activity at human recombinant 5-HT2B receptor expressed in CHO-K1 cells assessed as increase in intracellular calcium level by FLIPR assay; assay type: functional, cell-based
[7] = Selectivity of Ki for human serotonin transporter to Ki for rat alpha1 adrenergic receptor
D(2) dopamine receptor [8] = biological target: T1, D(2) dopamine receptor; test: Ratio of drug to quinpirole for agonist activity at D2 receptor assessed as change in intracellular cAMP level by cell based assay; assay type: functional
Rattus norvegicus [9] = test: Behavioral effect in CAR rat model assessed as increase in escape response at 10 mg/kg, po; assay type: functional, organism-based; design: dose 10 mg/kg
Mus musculus [10] = test: Inhibition of catalepsy in mouse at 10 mg/kg, ip after 90 mins; assay type: functional
Rattus norvegicus [11] = test: Behavioral effect in CAR rat model assessed as reduction of avoidance response at 10 mg/kg, ip; assay type: functional, organism-based; design: dose 10 mg/kg
Rattus norvegicus [12] = test: Behavioral effect in CAR rat model assessed as reduction of avoidance response at 10 mg/kg, po; assay type: functional, organism-based; design: dose 10 mg/kg
Rattus norvegicus [13] = test: Behavioral effect in CAR rat model assessed as increase in escape response at 10 mg/kg, ip; assay type: functional, organism-based; design: dose 10 mg/kg
Mus musculus [14] = test: Antipsychotic activity in ip dosed AIC mouse model assessed as stereotype effects; assay type: functional
Mus musculus [15] = test: Antipsychotic activity in ip dosed AIC mouse model assessed as climbing response; assay type: functional

Compound: O=c1[nH]c2cccc(OCC3CCN(CCC4CCc5[nH]c6ccc(F)cc6c5C4)CC3)c2o1 (stereo not given)
Ki [1]: 10 nM
Ki (D(2) dopamine receptor [2]): 720 nM

Compound: O=C1Cc2c(ccc3c2OC[C@H](CNCC2CCc4[nH]c5ccc(F)cc5c4C2)O3)N1 (stereo in doubt; 25) [listing 1 of 2 here]
Ki [3]: 2 nM
Ki [1]: 1 nM
Ki [4]: 0.72 nM
Ki [5]: 6 nM
Ki (D(2) dopamine receptor [2]): 3 nM

Compound: O=C1Cc2c(ccc3c2OC[C@H](CNCCCC2CCc4c([nH]c5ccc(F)cc45)C2)O3)N1 (stereo in doubt; 22) [listing 1 of 2 here]
Activity [6]: inactive
Ratio Ki [7]: 10
Ratio (D(2) dopamine receptor [8]): 0.3

Compound: O=C1Cc2c(ccc3c2OC[C@H](CNCCCC2CCc4c([nH]c5ccc(F)cc45)C2)O3)N1 (stereo in doubt; 22) [listing 2 of 2 here]
Ki [3]: 6 nM
Ki [1]: 15 nM
Ki [4]: 54 nM
Ki [5]: 610 nM
Ki (D(2) dopamine receptor [2]): 50 nM

Compound: O=C1Cc2c(ccc3c2OC[C@H](CNCC2CCc4[nH]c5ccc(F)cc5c4C2)O3)N1 (single isomer, unassigned) [listing 1 of 2 here]
Ki [3]: 2 nM
Ki [1]: 7 nM
Ki [4]: 0.5 nM
Ki [5]: 130 nM
Ki (D(2) dopamine receptor [2]): 3 nM

Compound: O=C1Cc2c(ccc3c2OC[C@H](CNCC2CCc4c([nH]c5ccc(F)cc45)C2)O3)N1 (stereo not given in full)
Ki [1]: 25 nM
Ki (D(2) dopamine receptor [2]): 100 nM

Compound: O=C1Cc2c(ccc3c2OC[C@H](CNCC2CCc4[nH]c5ccc(F)cc5c4C2)O3)N1 (stereo in doubt; 25) [listing 2 of 2 here]
Activity [6]: inactive
Ratio Ki [7]: 10
Ratio (D(2) dopamine receptor [8]): 0.4

Compound: O=C1Cc2c(ccc3c2OC[C@H](CNCCCC2CCc4c([nH]c5ccc(F)cc45)C2)O3)N1 (stereo in doubt; 23) [listing 1 of 2 here]
Ki [1]: 4 nM
Ki [4]: 22 nM
Ki [5]: 400 nM
Ki (D(2) dopamine receptor [2]): 45 nM

Compound: O=C1Cc2c(cccc2N2CCN(CCC3CCc4[nH]c5ccc(F)cc5c4C3)CC2)N1 (stereo not given)
Ki [1]: 4700 nM
Ki (D(2) dopamine receptor [2]): 15 nM

Compound: O=C1Cc2c(ccc3c2OC[C@H](CNCCC2CCc4[nH]c5ccc(F)cc5c4C2)O3)N1 (stereo not given in full) [listing 1 of 2 here]
Ki [1]: 24 nM
Ki (D(2) dopamine receptor [2]): 24 nM

Compound: O=C1Cc2c(ccc3c2OC[C@H](CNCCC2CCc4c([nH]c5ccc(F)cc45)C2)O3)N1 (stereo not given in full)
Ki [1]: 5200 nM
Ki (D(2) dopamine receptor [2]): 36 nM

Compound: O=C1Cc2c(ccc3c2OC[C@H](CNCCCC2CCc4c([nH]c5ccc(F)cc45)C2)O3)N1 (stereo in doubt; 23) [listing 2 of 2 here]
Activity [6]: inactive
Ratio Ki [7]: 10
Ratio (D(2) dopamine receptor [8]): 0.3

Compound: O=C1Cc2c(ccc3c2OC[C@H](CNCCC2CCc4[nH]c5ccc(F)cc5c4C2)O3)N1 (stereo not given in full) [listing 2 of 2 here]
Ki [1]: 21 nM
Ki (D(2) dopamine receptor [2]): 24 nM

Compound: O=C1Cc2c(ccc3c2OC[C@H](CNCC2CCc4[nH]c5ccc(F)cc5c4C2)O3)N1 (single isomer, unassigned) [listing 2 of 2 here]
Activity [6]: inactive
Ratio Ki [7]: 10
Ratio (D(2) dopamine receptor [8]): 0.3

Now from value to compound, other results behind:

Ki [1]: 32 nM
Ki (D(2) dopamine receptor [2]): 60 nM
Compound: O=c1[nH]c2cccc(N3CCN(CC4CCc5[nH]c6ccc(F)cc6c5C4)CC3)c2o1 (single isomer, unassigned; 30)

Activity [6]: inactive
Ratio Ki [7]: 10
Ratio (D(2) dopamine receptor [8]): 0.3
Compound: O=c1[nH]c2cccc(N3C[C@H]4C[C@@H]3CN4CC3CCc4[nH]c5ccc(F)cc5c4C3)c2o1 (stereo not given in full) [listing 1 of 3 here]

Ki [1]: 1200 nM
Ki (D(2) dopamine receptor [2]): 310 nM
Compound: O=c1[nH]c2cccc(OC3CCN(CCC4CCc5[nH]c6ccc(F)cc6c5C4)CC3)c2o1 (stereo not given)

Ki [1]: 62 nM
Ki (D(2) dopamine receptor [2]): 220 nM
Compound: O=c1[nH]c2cccc(N3CCN(CC4CCc5c([nH]c6ccc(F)cc56)C4)CC3)c2o1 (stereo not given)

Ki [1]: 62 nM
Ki (D(2) dopamine receptor [2]): 50 nM
Compound: O=c1[nH]c2cccc(N3CCN(CCCC4CCc5c([nH]c6ccc(F)cc56)C4)CC3)c2o1 (stereo not given)

Ki [1]: 1140 nM
Ki (D(2) dopamine receptor [2]): 15 nM
Compound: O=C1Cc2c(cccc2N2CCN(CC3CCc4[nH]c5ccc(F)cc5c4C3)CC2)N1 (stereo not given)

Ki [1]: 460 nM
Ki (D(2) dopamine receptor [2]): 12 nM
Compound: O=c1[nH]c2cccc(N3C[C@H]4C[C@@H]3CN4CC3CCc4[nH]c5ccc(F)cc5c4C3)c2o1 (stereo not given in full) [listing 2 of 3 here]

Ki [1]: 3 nM
Ki (D(2) dopamine receptor [2]): 140 nM
Compound: O=c1[nH]c2cccc(OC3CCN(CC4CCc5[nH]c6ccc(F)cc6c5C4)CC3)c2o1 (stereo not given)

Activity [6]: inactive
Ratio (D(2) dopamine receptor [8]): < 0.1
Ki [1]: 0.4 nM
Ki [4]: 130 nM
Ki [5]: 110 nM
Ki (D(2) dopamine receptor [2]): 28 nM
Compound: O=c1[nH]c2cccc(OCC3CCN(CC4CCc5[nH]c6ccc(F)cc6c5C4)CC3)c2o1 (stereo not given)

Activity [6]: inactive
Ratio (D(2) dopamine receptor [8]): 0.6
Compound: O=c1[nH]c2cccc(N3CCN(CC4CCc5[nH]c6ccc(F)cc6c5C4)CC3)c2o1 (single isomer, unassigned; 31) [listing 1 of 2 here]
Activity (Rattus norvegicus [9]): Active
Activity (Mus musculus [10]): inactive
Activity (Rattus norvegicus [11]): Active
Activity (Rattus norvegicus [12]): Active
Activity (Rattus norvegicus [13]): Active

Ki [3]: 1800 nM
Ki [1]: 8 nM
Ki [4]: 65 nM
Ki [5]: 165 nM
Ki (D(2) dopamine receptor [2]): 14 nM
Compound: O=c1[nH]c2cccc(N3C[C@H]4C[C@@H]3CN4CC3CCc4[nH]c5ccc(F)cc5c4C3)c2o1 (stereo not given in full) [listing 3 of 3 here]
inhibition in vivo at 10 mg/kg (Mus musculus [10]; 1.5 h, route intraperitoneal): 48%
ED50 (Mus musculus [14]): > 5 mg/kg
ED50 (Mus musculus [15]): 2.3 mg/kg

Ki [1]: 41 nM
Ki (D(2) dopamine receptor [2]): 120 nM
Compound: O=c1[nH]c2cccc(CN3CCN(CC4CCc5[nH]c6ccc(F)cc6c5C4)CC3)c2o1 (stereo not given)

Ki [3]: 130 nM
Ki [1]: 22 nM
Ki [4]: 220 nM
Ki [5]: 680 nM
Ki (D(2) dopamine receptor [2]): 17 nM
Compound: O=c1[nH]c2cccc(N3CCN(CC4CCc5[nH]c6ccc(F)cc6c5C4)CC3)c2o1 (single isomer, unassigned; 31) [listing 2 of 2 here]
ED50 (Mus musculus [14]): > 1 mg/kg
ED50 (Mus musculus [15]): 0.5 mg/kg
